Measurements: patent US20250000881A1, “TREATMENT OF TREATMENT RESISTANT […] PSILOCYBIN” (COMPASS […], priority 2021, published 2025)
≈ marks a conversion by molar mass, not a printed value.

Experiments:
adult subjects with TRD = test: Phase 2b trial in TRD: Sheehan Disability Scale (SDS); assay type: in vivo, human; conditions: 25 mg vs 1 mg, week 3
Protocol: Other objectives were to evaluate the effects of psilocybin on quality of life and wellbeing, functioning and associated disability, cognitive function, and anxiety compared to 1 mg psilocybin on: • (a) Quality of life in subject EuroQoL (EQ)-5 dimension-3 level scale (EQ-5D-3L) score change from Baseline to week 3. This will also be assessed at week 12. This assessment was not mandatory. • (b) Quality of life in caregiver EQ-5D-3L score change from Baseline to week 3. This was assessed at week 12. • (c) Functioning and associated disability in the Sheehan Disability Scale (SDS) score change from Baseline to week 3. This was also assessed at week 12. • (d) Cognitive function as measured by the Digit Symbol Substitution Test (DSST) score change from baseline to week 3. This was assessed at day 1 and week 12. • (e) Level of anxiety as measured using the change in Generalised Anxiety Disorder 7 item Scale (GAD-7) total score change from baseline to week 3. This was assessed at week 12. • (f) Subject determined level of depression as measured using the change in Quick Inventory of Depressive Symptomatology Self-Rated (QIDS-SR-16) total score from Baseline to week 3. […] This was assessed at week 12. • (h) To evaluate the impact of different psilocybin doses on real life functional activity estimated from passive data streams collected on a mobile app on subjects' mobile phones. […]

[1] = test system: participants with TRD from Example 2; test: Long term follow-up study: MADRS responders, remitters, sustained responders to week 52; assay type: in vivo, human
Protocol: The following example is a long term follow up of study of a sustained responder population from Example 2. 58 participants from Example 2 were selected for a long term 52 week follow up study. Of the 58 patients, 22 received a 25 mg dose of psilocybin, 19 received a 10 mg dose of psilocybin, and 17 received a 1 mg dose of psilocybin. […] None of the patients in this study received treatment for depression before their week 12 MADRS visit in Example 2. Patients were analyzed for a change in MADRS total score from Baseline to 12, 16, 20, 24, 28, 40, and 52 weeks.
The secondary endpoint of this study was to determine the change in MADRS total score from Baseline to 12, 16, 20, 24, 28, 40, and 52 weeks post treatment. […] Note, “n*” changed to account for subjects that dropped out the long term study.

CN(C)CCc1c[nH]c2cccc(OP(=O)(O)O)c12 [COMP360, psilocybin]
solubility (Solubility in water): ~15 mg/mL (≈ 52.8 mM) | SDS treatment difference (adult subjects with TRD): −6.49 | MADRS remitters (MADRS total score≤10) ([1]; 1 mg (N = 17), Week 3): 0/11 | MADRS remitters (MADRS total score≤10) ([1]; 1 mg (N = 17), Week 9): 0/8 | MADRS relaxed sustained responders ([1]; 1 mg (N = 17), Week 12): 0/7 | MADRS remitters (MADRS total score≤10) ([1]; 1 mg (N = 17), Week 12): 0/7 | MADRS sustained responders (response at Week 3 and all subsequent visits) ([1]; 1 mg (N = 17), Week 12): 0/7 | MADRS relaxed sustained responders ([1]; 1 mg (N = 17), Week 16): 0/5 | MADRS remitters (MADRS total score≤10) ([1]; 1 mg (N = 17), Week 16): 0/5 | MADRS responders (≥50% reduction from baseline in MADRS total score) ([1]; 1 mg (N = 17), Week 16): 0/5 | MADRS sustained responders (response at Week 3 and all subsequent visits) ([1]; 1 mg (N = 17), Week 16): 0/5 | MADRS relaxed sustained responders ([1]; 1 mg (N = 17), Week 20): 0/4 | MADRS remitters (MADRS total score≤10) ([1]; 1 mg (N = 17), Week 20): 0/4 | MADRS sustained responders (response at Week 3 and all subsequent visits) ([1]; 1 mg (N = 17), Week 20): 0/4 | MADRS sustained responders (response at Week 3 and all subsequent visits) ([1]; 1 mg (N = 17), Week 24): 0/4 | MADRS relaxed sustained responders ([1]; 1 mg (N = 17), Week 28): 0/4 | MADRS remitters (MADRS total score≤10) ([1]; 1 mg (N = 17), Week 28): 0/4 | MADRS sustained responders (response at Week 3 and all subsequent visits) ([1]; 1 mg (N = 17), Week 28): 0/4 | MADRS relaxed sustained responders ([1]; 1 mg (N = 17), Week 40): 0/4 | MADRS sustained responders (response at Week 3 and all subsequent visits) ([1]; 1 mg (N = 17), Week 40): 0/4 | MADRS relaxed sustained responders ([1]; 1 mg (N = 17), Week 52): 0/4 | MADRS remitters (MADRS total score≤10) ([1]; 1 mg (N = 17), Week 52): 0/4 | MADRS responders (≥50% reduction from baseline in MADRS total score) ([1]; 1 mg (N = 17), Week 52): 0/4 | MADRS sustained responders (response at Week 3 and all subsequent visits) ([1]; 1 mg (N = 17), Week 52): 0/4 | MADRS remitters (MADRS total score≤10) ([1]; 10 mg (N = 19), Week 16): 0/5 | MADRS relaxed sustained responders ([1]; 10 mg (N = 19), Week 20): 0/3 | MADRS sustained responders (response at Week 3 and all subsequent visits) ([1]; 10 mg (N = 19), Week 20): 0/3 | MADRS sustained responders (response at Week 3 and all subsequent visits) ([1]; 10 mg (N = 19), Week 24): 0/3 | MADRS sustained responders (response at Week 3 and all subsequent visits) ([1]; 10 mg (N = 19), Week 28): 0/4 | MADRS sustained responders (response at Week 3 and all subsequent visits) ([1]; 10 mg (N = 19), Week 40): 0/5 | MADRS sustained responders (response at Week 3 and all subsequent visits) ([1]; 10 mg (N = 19), Week 52): 0/5 | MADRS relaxed sustained responders ([1]; 25 mg (N = 22), Week 40): 0/6 | MADRS remitters (MADRS total score≤10) ([1]; 25 mg (N = 22), Week 40): 0/6 | MADRS sustained responders (response at Week 3 and all subsequent visits) ([1]; 25 mg (N = 22), Week 40): 0/6 | MADRS remitters (MADRS total score≤10) ([1]; 25 mg (N = 22), Week 52): 0/6 | MADRS sustained responders (response at Week 3 and all subsequent visits) ([1]; 25 mg (N = 22), Week 52): 0/6
